From article PMC2719696, “Kinetics and Cellular Site of Glycolipid Loading Control the Outcome of Natural Killer T Cell Activation” (Immunity, 2009)

Key:
mCD1d [1] = target: T1, mCD1d (Mus musculus, UniProt P11609); assay: Loading of mCD1d tetramers with or without 0.05% Triton X-100, staining of hybridoma DN3A4.1-2; assay type: binding; settings: 0.05% Triton X-100, 24 hr at 37°C
T1 sequence (P11609 22-305 limits assumed): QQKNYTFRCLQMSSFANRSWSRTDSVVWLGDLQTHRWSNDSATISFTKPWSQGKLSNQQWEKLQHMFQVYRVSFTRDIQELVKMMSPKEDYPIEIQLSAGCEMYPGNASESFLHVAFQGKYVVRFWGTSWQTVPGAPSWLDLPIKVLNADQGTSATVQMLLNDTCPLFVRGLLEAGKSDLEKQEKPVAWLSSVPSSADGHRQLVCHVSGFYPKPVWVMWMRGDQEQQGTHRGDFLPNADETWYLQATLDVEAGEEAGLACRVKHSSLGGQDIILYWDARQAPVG
T1 sequence (P01887 21-119 partner): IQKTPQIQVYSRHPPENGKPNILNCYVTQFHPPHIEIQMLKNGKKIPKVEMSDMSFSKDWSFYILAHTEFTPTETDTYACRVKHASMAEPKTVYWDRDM
Description: The efficient loading of CD1 molecules with lipids such as αGalCer-C26:0 is known to involve cofactors that enhance the transfer of lipids from micelles or membranes into the antigen-binding groove of the CD1 protein. The best known of these cofactors are resident intracellular lipid binding and transfer proteins including those belonging to the saposin family, GM2 activator proteins, and Niemann-Pick type C1 and C2 proteins ([Zhou et al., 2004; Sagiv et al., 2006; Yuan et al., 2007; Schrantz et al., 2007]). Most of these are known to have detergent-like activities that facilitate solubilization of lipids and their exchange between hydrophobic binding sites. […]
Figure 5 Lack of Detergent-like Cofactor Dependence of Th2 Cell-Type Cytokine-Biasing αGalCer Analogs (A) Glycolipids were incubated for 24 hr at 37°C with murine CD1d proteins in the absence (top row) or presence (bottom row) of 0.05% Triton X-100. […] After washing, DN32.D3 iNKT hybridoma cells were added and supernatant concentrations of IL-2 were determined after an additional 14 hr of incubation. […]
Recombinant CD1d proteins were produced and assembled into tetramers for staining as previously described ([Forestier et al., 2007]). […] All samples were analyzed with the FACSCalibur flow cytometer (BD Biosciences).

mCD1d [2] = target: T1, mCD1d; assay: In vitro CD1d loading assay with immobilized mCD1d, saposins or Triton X-100, DN32.D3 hybridoma IL-2 readout; assay type: biochemical; settings: for effect of all four saposins on mCD1d loading: saposins 10 μg/ml
Procedure: Figure 5 Lack of Detergent-like Cofactor Dependence of Th2 Cell-Type Cytokine-Biasing αGalCer Analogs (A) Glycolipids were incubated for 24 hr at 37°C with murine CD1d proteins in the absence (top row) or presence (bottom row) of 0.05% Triton X-100. The resulting complexes were assembled as tetramers and used for staining mouse iNKT hybridoma DN3A4.1-2. The dashed line histograms show background staining with unloaded tetramers, and the bold histograms show staining with glycolipid loaded tetramers. (B) The same analysis as in (A) except with human CD1d tetramers, which were also used for DN3A4.1-2 staining. (C) Glycolipids at various concentrations were incubated with immobilized mCD1d protein for 2 hr in pH 7.0 or pH 5.0 buffers with no additives (medium) or in the same buffers containing the indicated purified recombinant saposins (10 μg/ml) or Triton X-100 (0.05%). After washing, DN32.D3 iNKT hybridoma cells were added and supernatant concentrations of IL-2 were determined after an additional 14 hr of incubation. All results shown (A, B, and C) were representative of at least two independent experiments.
To extend these observations to a more physiological model, we tested the effects of purified recombinant saposin A, B, C, and D proteins on loading of αGalCer analogs.
Recombinant murine CD1d proteins at 4 μg/ml in 50 μl PBS were coated on the surfaces of microtiter plate wells for 2 hr at 37°C and then washed with PBS for removal of unbound proteins. Subsequently, various concentrations of glycolipids in 0.1 M sodium phosphate buffer (pH 7.0) or 0.1 M sodium citrate buffer (pH 5.0) containing 150 mM NaCl were incubated with or without 0.05% Triton X-100 or recombinant purified human saposins A, B, C, or D at 10 μg/ml for another 2 hr at 37°C. Saposins were produced and purified as described ([Yuan et al., 2007]). After extensive washing with PBS and media, 5 × 10^4 murine iNKT hybridoma DN32.D3 cells were added in 200 μl of complete medium and incubated at 37°C for 14 hr. Supernatants were analyzed for murine IL-2 by capture ELISA.

GM1-enriched lipid rafts = assay type: cell-based, mouse; settings: JAWS II cells, 18 hr with 100 nM glycolipid

With `CCCCCCCCCCCCCCCCCCCCCCCCCC(=O)NC(COC1OC(CO)C(O)C(O)C1O)C(O)C(O)CCCCCCCCCCCCCC` (stereo not shown) [αGalCer-C26:0, reference compound] as the compound, how does the “effect of Triton X-100 on formation of mCD1d tetramers that bind iNKT cell TCRs” value (mCD1d [1]) read?
The value was “clear enhancing effect”.

And the “cofactor dependence of mCD1d loading” value (mCD1d [2]; recombinant mCD1d, iNKT hybridoma IL-2 readout)?
The value was “dependent either on the presence of detergent (0.1% Triton X-100) or on the presence of a purified saposin”.

What about the “colocalization of L363 staining with CTxB staining” value (GM1-enriched lipid rafts) of the same compound?
The value was “strong colocalization with CTxB staining”.

`CCCCCCCCCCCCCCC(O)C(O)C(COC1OC(CO)C(O)C(O)C1O)NC(=O)CCCCCCCCC` (stereo not shown) [αGalCer-C10:0] was tested. Which “effect of all four saposins on mCD1d loading” value (mCD1d [2]; acidic pH) did it give?
The value was “reduced mCD1d loading”.

What about the “effect of all four saposins on mCD1d loading” value (mCD1d [2]; neutral pH) of the same compound?
Its value is “only modest enhancement”.

What about the “colocalization of L363 staining with CTxB staining” value (GM1-enriched lipid rafts) of the same compound?
The value was “extremely limited colocalization with CTxB staining”.

For `CCCCCCCCCCCCCCCCCCCCCCCC(=O)NC(COC1OC(CO)C(O)C(O)C1O)C(O)C(O)CCCCCCCCCCCCCC` (stereo not shown) [αGalCer-C24:0], which “effect of Triton X-100 on formation of mCD1d tetramers that bind iNKT cell TCRs” value (mCD1d [1]) is on record?
Its value is “clear enhancing effect”.
